From patent US6534499B2, “N-substituted-N′-substituted urea derivatives and the use thereof as TNF-α production inhibitory agents” (Santen Pharmaceutical Co., Ltd., priority 1999, dated 2003)

Tested on: TNF-α produced by the human monocyte strain THP-1
Experiment: In vitro test: TNF-α production by THP-1 cells induced by stimulation with LPS
Assay type: cell-based
Conditions: 2 h; compound 10^−5M; THP-1 cells 10^6 cells/ml; LPS 2 μg/ml; 37° C., two hours; human TNF-α ELISA; read-out: Inhibitory Rate (%) of TNF-α production
Description: (§1) Each candidate compound was inspected for the effect of inhibiting TNF-α production induced by the stimulation with lipopolysaccharide (LPS), by an in vitro or in vivo test according to the method proposed by McGeehan et al. (Nature, 1994, 370:558-561).
The test was carried out by, determining the amount of TNF-α produced by the human monocyte strain THP-1 induced by the stimulation with LPS.
The culture medium used in this test was RPMI 1640 culture medium supplemented wiTNFetal calf serum (10%), L-glutamine (2 mM), 2-mercaptoethanol (50 μM), penicillin (50 units/ml) and streptomycin (50 μg/ml).
Regarding the cells, the human monocyte strain THP-1 cells cultivated in the foregoing culture medium were centrifuged at 100 xg for 5 minutes to remove the supernatant and then again suspended in a fresh culture medium prior to the practical use. The LPS used herein was derived from S. Typhimurium and this was dissolved in purified water and then diluted with the culture medium prior to use. Each compound to be tested was dissolved in dimethyl sulfoxide (DMSO) and diluted with the culture medium prior to the practical use.
The cells (10^6 cells/ml) prepared according to the foregoing method were admixed with the LPS (2 μg/ml) and a compound to be tested (10^−5M), the cells were incubated at 37° C. for two hours and then centrifuged at 1000 xg for 5 minutes. The resulting supernatant of the culture medium was inspected for the level of TNF-α using the human TNF-α -specific ELISA kit. In this connection, it was confirmed that the supernatant obtained by cultivating the cells in the culture medium free of any LPS (control) never included any TNF-α.
The rate of the TNF-α production inhibitory effect observed for each candidate compound was determined according to the following equation: […]
Wherein A is the level of TNF-α detected in the supernatant obtained from the culture medium free of any candidate compound and B is the level of TNF-α detected in the supernatant obtained from the culture medium containing a candidate compound.
In the case of `CC(=O)SCCN(CCC1CCCCC1)C(=O)NCCN1CCC(N(C)C)CC1.Cl.Cl` [Compound 6-2, 1-[2-(Acetylthio)ethyl]-1-(2-cyclohexylethyl)-3-[2-[4-(dimethylamino)-1-piperidyl]ethyl]urea di-hydrochloride], the inhibition at 10 µM is reported as 58%.
`CC(=O)SCCN(CCc1ccccc1)C(=O)N[C@@H](Cc1ccccc1)CN1CCN(C)CC1` [Compound 3-6, 1-[2-(Acetylthio)ethyl]-3-[(1S)-1-benzyl-2-(4-methylpiperazin-1-yl)ethyl]-1-phenethyl urea] gave an inhibition at 10 µM of 94%.
With `CC(=O)SCCN(CCC1CCCCC1)C(=O)NCCN1CC=CCC1` [Compound 3-13, 1-[2-(Acetylthio)ethyl]-1-(2-cyclohexylethyl)-3-[2-(1,2,5,6-tetrahydropyridin-1-yl)ethyl] urea] the inhibition at 10 µM was 66%.

Tested on: TNF-α production induced by LPS (plasma TNF-α)
Experiment: In vivo test: plasma TNF-α level in LPS-administered mice
Conditions: female mice; 10 mg/kg subcutaneously immediately after LPS i.p.; plasma one hour after LPS; mouse TNF-α ELISA
Description: as §1
Animals used herein were about 7-week-old female mice (5 animals per group) having a body weight of about 20 g. The LPS herein used was derived from Salmonella and it was dissolved in phosphate-buffered physiological saline prior to the practical use (20 μg/ml). Each candidate compound was dissolved or suspended in a 2% dimethyl sulfoxide-containing physiological saline to give a uniform solution or suspension (1 mg/ml).
The LPS solution (10 ml/kg) prepared above was intraperitoneally administered to each test mouse. Immediately after the administration of the LPS solution, the solution of each candidate compound prepared above (10 ml/kg, containing 10 mg/kg of the candidate compound) was subcutaneously injected to each animal. After one hour from the administration of the LPS, each animal was decapitated, the blood was collected from the animal and the blood was centrifuged at 4° C., 3000 rpm for 5 minutes. The resulting plasma was inspected for the level of TNF-α using the mouse TNF-α -specific ELISA kit. In this connection, any TNF-α was not detected in the plasma derived from the animal group free of the LPS-administration (control group).
The rate of TNF-α production-inhibitory effect observed for each candidate compound was determined according to the following equation:
Inhibitory Rate (%)=100×(A−B)/A
Wherein A is the level of TNF-α detected in the plasma derived from the animal group to which any candidate compound was not administered and B is the level of TNF-α detected in the plasma derived from the animal group to which a candidate compound was administered.
With `CC(=O)SCCN(CCC1CCCCC1)C(=O)NCC1CCN(C)CC1.Cl` [Compound 6-3, 1-[2-(Acetylthio)ethyl]-1-(2-cyclohexylethyl)-3-[(1-methyl-4-piperidyl)-methyl]urea hydrochloride] the “Inhibitory Rate (%) of TNF-α production” value was 50%.
With `CC(=O)SCCN(CCC1CCCCC1)C(=O)NCCCN1CCCC1` [Compound 3-3, 1-[2-(Acetylthio)ethyl]-1-(2-cyclohexylethyl)-3-[3-(1-pyrrolidinyl)propyl]-urea] the “Inhibitory Rate (%) of TNF-α production” value was 64%.
With `CSCCN(CCC1CCCCC1)C(=O)NCCN1CCCCC1.Cl` [Compound 6-4, 1-(2-Cyclohexylethyl)-1-[2-(methylthio)ethyl]-3-[2-(1-piperidyl)ethyl]urea hydrochloride] the “Inhibitory Rate (%) of TNF-α production” value was 59%.
With `CC(=O)SCCN(CCC1CCCCC1)C(=O)NCCCN1CCCCC1` [Compound 3-4, 1-[2-(Acetylthio)ethyl]-1-(2-cyclohexylethyl)-3-[3-(1-piperidyl)propyl]urea] the “Inhibitory Rate (%) of TNF-α production” value was 51%.
For `CC(=O)SCCN(CCC1CCCCC1)C(=O)NCCN1CCCC1` [Compound 3-2, 1-[2-(Acetylthio)ethyl]-1-(2-cyclohexylethyl)-3-[2-(1-pyrrolidinyl)ethyl]-urea], the “Inhibitory Rate (%) of TNF-α production” value was 50%.
With `CC(=O)SCCN(CCC1CCCCC1)C(=O)NCCN1CCCCCC1` [Compound 3-9, 1-[2-(Acetylthio)ethyl]-1-(2-cyclohexylethyl)-3-[2-(l-homopiperidyl)ethyl]-urea] the “Inhibitory Rate (%) of TNF-α production” value was 76%.
In the case of `CC(=O)SCCN(CCC1CCCCC1)C(=O)NCCN1CCCCC1.Cl` [Compound 6-1, 1-[2-(Acetylthio)ethyl]-1-(2-cyclohexylethyl)-3-[2-(1-piperidyl)-ethyl]urea hydrochloride], the “Inhibitory Rate (%) of TNF-α production” value is reported as 78%.
In the case of `CCN1CCCC1CNC(=O)N(CCSC(C)=O)CCC1CCCCC1` (racemic) [Compound 3-17, 1-[2-(Acetylthio)ethyl]-1-(2-cyclohexylethyl)-3-[[(2RS)-1-ethyl-2-pyrrolidinyl]methyl] urea], the “Inhibitory Rate (%) of TNF-α production” value is reported as 52%.

Tested on: not given
Experiment: not given
Conditions: not given
`O=C(NCC1CCN(C(=O)OCc2ccccc2)CC1)N(CCO)CCC1CCCCC1` [Compound 1-18, 1-[[1-(Benzyloxycarbonyl)-4-piperidyl]methyl]-3-(2-cyclohexylethyl)-3-(2-hydroxy-ethyl) urea] gave a melting point of 94.5 to 95.5 °C.
In the case of `CC(=O)SCCN(CCC1CCCCC1)C(=O)NCCN1CCC(N(C)C)CC1.Cl.Cl` [Compound 6-2, 1-[2-(Acetylthio)ethyl]-1-(2-cyclohexylethyl)-3-[2-[4-(dimethylamino)-1-piperidyl]ethyl]urea di-hydrochloride], the melting point is reported as 170 °C (dec.).
